Test results: PMC9538320 (Protein Science : A Publication of the Protein Society, 2022)

Target: SARS-CoV-2 protein 7a ectodomain (protein 7a ECD) (Severe acute respiratory syndrome coronavirus 2, UniProt P0DTC7)
Assay: biochemical

Chain of SARS-CoV-2 protein 7a ectodomain (protein 7a ECD) (P0DTC7 16-95): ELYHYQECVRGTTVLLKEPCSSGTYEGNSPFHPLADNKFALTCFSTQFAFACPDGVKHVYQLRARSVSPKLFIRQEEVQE

In the case of `C=CC1=C(C)C2=Cc3c(C=C)c(C)c4[n]3[Fe]([Cl])[n]3c(c(C)c(CCC(=O)O)c3=CC3=NC(=C4)C(C)=C3CCC(=O)O)=CC1=N2` [heme], the Kd is reported as 469 ± 27 nM.
